Our source for the EC50 values is US9738630B2, “Inhibitors of lysine methyl transferase” (BRISTOL-MYERS SQUIBB COMPANY, priority 2013, dated 2017).

recombinant EZH2-641F complex (EZH2 Y641F/EED/SUZ12/RbAp48/AEBP2), sequence (Q15910 whole entry Y641F): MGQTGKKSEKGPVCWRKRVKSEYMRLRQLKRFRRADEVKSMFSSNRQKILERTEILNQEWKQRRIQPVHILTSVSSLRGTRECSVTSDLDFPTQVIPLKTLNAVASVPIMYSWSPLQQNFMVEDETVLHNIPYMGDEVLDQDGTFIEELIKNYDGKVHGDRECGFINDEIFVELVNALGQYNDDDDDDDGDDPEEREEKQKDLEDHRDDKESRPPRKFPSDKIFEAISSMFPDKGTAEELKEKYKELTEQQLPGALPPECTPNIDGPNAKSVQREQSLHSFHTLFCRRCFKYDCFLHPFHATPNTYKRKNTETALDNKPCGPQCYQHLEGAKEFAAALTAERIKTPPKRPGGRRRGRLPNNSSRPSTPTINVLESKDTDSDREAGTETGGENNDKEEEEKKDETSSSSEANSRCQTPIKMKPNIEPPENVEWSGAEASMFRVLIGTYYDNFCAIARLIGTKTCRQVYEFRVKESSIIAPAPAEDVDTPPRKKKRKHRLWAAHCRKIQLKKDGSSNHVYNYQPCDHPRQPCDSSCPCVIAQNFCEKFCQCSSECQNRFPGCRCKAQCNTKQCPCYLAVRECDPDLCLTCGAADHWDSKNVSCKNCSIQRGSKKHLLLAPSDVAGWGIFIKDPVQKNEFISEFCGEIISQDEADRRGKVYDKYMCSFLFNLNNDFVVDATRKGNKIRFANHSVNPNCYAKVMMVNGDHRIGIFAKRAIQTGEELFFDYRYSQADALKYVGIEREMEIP
recombinant EZH2-641F complex (EZH2 Y641F/EED/SUZ12/RbAp48/AEBP2), sequence (O75530 whole entry partner): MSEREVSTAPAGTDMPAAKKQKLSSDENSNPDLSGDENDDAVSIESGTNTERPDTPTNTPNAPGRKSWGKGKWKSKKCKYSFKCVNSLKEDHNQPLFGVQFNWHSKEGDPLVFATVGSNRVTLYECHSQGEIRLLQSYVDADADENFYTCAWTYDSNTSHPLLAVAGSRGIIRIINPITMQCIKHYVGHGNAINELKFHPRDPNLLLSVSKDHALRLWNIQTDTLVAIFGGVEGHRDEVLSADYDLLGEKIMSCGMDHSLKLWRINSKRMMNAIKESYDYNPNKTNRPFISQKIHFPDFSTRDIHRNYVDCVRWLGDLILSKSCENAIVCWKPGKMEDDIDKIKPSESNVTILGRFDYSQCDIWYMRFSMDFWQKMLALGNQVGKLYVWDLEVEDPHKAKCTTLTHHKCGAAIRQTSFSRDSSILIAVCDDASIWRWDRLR
recombinant EZH2-641F complex (EZH2 Y641F/EED/SUZ12/RbAp48/AEBP2), sequence (Q15022 whole entry partner): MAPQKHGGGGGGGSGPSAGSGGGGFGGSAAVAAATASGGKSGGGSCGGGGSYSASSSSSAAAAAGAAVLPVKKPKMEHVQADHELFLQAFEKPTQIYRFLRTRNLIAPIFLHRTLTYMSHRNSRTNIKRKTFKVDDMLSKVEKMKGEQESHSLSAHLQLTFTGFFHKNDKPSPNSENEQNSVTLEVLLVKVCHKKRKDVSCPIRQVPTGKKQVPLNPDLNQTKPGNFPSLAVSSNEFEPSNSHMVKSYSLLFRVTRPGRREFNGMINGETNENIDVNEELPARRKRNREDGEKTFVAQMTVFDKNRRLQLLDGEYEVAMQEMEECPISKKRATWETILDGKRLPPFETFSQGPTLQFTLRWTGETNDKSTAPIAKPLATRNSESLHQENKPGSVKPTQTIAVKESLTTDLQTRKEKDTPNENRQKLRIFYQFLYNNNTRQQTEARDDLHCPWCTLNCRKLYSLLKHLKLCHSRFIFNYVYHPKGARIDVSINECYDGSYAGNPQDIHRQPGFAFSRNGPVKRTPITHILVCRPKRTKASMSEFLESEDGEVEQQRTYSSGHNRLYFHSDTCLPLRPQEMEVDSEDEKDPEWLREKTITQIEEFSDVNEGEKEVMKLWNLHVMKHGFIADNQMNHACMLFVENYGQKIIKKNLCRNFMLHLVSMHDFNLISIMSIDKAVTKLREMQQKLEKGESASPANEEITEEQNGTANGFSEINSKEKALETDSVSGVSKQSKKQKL
recombinant EZH2-641F complex (EZH2 Y641F/EED/SUZ12/RbAp48/AEBP2), sequence (Q09028 whole entry partner): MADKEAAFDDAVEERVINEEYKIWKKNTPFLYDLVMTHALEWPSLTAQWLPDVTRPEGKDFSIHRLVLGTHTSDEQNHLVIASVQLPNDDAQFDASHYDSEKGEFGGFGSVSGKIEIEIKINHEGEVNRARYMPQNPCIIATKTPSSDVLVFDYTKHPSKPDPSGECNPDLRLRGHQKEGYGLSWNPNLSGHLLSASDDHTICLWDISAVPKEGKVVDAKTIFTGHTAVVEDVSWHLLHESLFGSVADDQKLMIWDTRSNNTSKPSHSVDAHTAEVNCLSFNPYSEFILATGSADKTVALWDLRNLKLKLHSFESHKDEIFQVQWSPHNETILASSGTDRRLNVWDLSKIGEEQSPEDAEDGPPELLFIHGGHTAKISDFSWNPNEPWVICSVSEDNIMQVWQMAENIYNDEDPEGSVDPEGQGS
recombinant EZH2-641F complex (EZH2 Y641F/EED/SUZ12/RbAp48/AEBP2), sequence (Q6ZN18 whole entry partner): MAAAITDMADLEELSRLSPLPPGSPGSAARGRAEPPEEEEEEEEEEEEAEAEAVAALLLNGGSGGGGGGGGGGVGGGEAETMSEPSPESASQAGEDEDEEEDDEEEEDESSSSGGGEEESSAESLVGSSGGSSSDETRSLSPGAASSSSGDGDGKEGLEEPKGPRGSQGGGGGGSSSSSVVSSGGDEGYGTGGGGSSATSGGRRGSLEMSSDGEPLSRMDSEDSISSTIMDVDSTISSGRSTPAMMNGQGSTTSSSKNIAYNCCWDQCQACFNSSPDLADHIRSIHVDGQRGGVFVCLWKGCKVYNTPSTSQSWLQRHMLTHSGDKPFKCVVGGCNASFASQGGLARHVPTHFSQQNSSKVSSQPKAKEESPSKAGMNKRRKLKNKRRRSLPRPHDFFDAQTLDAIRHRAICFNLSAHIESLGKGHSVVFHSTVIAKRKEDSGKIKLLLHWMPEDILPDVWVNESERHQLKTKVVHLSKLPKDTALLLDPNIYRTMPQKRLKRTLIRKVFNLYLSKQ

This test addresses recombinant EZH2-641F complex (EZH2 Y641F/EED/SUZ12/RbAp48/AEBP2) (Homo sapiens (Human), UniProt Q15910, Y641F). Put plainly: EZH2 Histone Methyl Transferase Assay (scintillation proximity assay). Conditions: 350 nM histone peptide substrate, 500 nM 3H-SAM, 3 hours at room temperature. The class given is biochemical. The source says: EZH2 Histone Methyl Transferase Assay
The effectiveness of compounds of the present invention as inhibitors of hitone methyl transferases can be readily tested by assays known to those skilled in the art. For example, in vitro histone methyl transferase assays may be conducted with a relevant purified histone methyl transferase and an appropriate synthetic substrate to determine the inhibitory activity of the compounds. […] Reaction products were captured by binding to strepavidin-conjugated imaging beads. Incorporation of radioactive methyl group into the histone peptide substrate was determined in Leadseeker (GE Healthcare) by means of scintiallation proximity assay. […] Compounds were dissolved at 10 mM in dimethylsulfoxide (DMSO) and evaluated at eleven concentrations. EC50 values were derived by non-linear regression analysis.
(In a scintillation proximity assay essentially only radioactivity close to the scintillant gives light.)
Consider `CCC(C)n1cc(C)c2c(C(=O)NCc3c(=O)[nH]c(C)c4ccccc34)cc(-c3ccc(N4CCN(C(=O)OC(C)(C)C)CC4)nc3)cc21` (stereo not shown) [Example 9, tert-Butyl 4-(5-(1-(sec-butyl)-3-methyl-4-(((1-methyl-3-oxo-2,3-dihydroisoquinolin-4-yl)methyl)carbamoyl)-1H-indol-6-yl)pyridin-2-yl)piperazine-1-carboxylate], for which the EC50 was ≤ 5 µM.

Turning to `CCC(C)n1cc(C)c2c(C(=O)NCc3c(=O)[nH]c(C)c4ccccc34)cc(-c3ccc(N4CCNCC4)nc3)cc21` (stereo not shown) [Example 10, 1-(sec-Butyl)-3-methyl-N-((1-methyl-3-oxo-2,3-dihydroisoquinolin-4-yl)methyl)-6-(6-(piperazin-1-yl)pyridin-3-yl)-1H-indole-4-carboxamide], the EC50 is ≤ 0.5 µM.

For the compound `Cc1[nH]c(=O)c(CNC(=O)c2cc3c(c(-c4ccc(N5CCNCC5)nc4)c2)OC(C)(C)C3)c2ccccc12` [Example 17, 2,2-Dimethyl-N-((1-methyl-3-oxo-2,3-dihydroisoquinolin-4-yl)methyl)-7-(6-(piperazin-1-yl)pyridin-3-yl)-2,3-dihydrobenzofuran-5-carboxamide], the EC50 is ≤ 5 µM.

In the case of `CCN(c1cc(-c2ccc(CN3CCOCC3)cc2)cc(C(=O)NCC2C(=O)NC(C)c3cccc(F)c32)c1C)C1CCOCC1` (stereo not shown) [Example 5, 5-(Ethyl(tetrahydro-2H-pyran-4-yl)amino)-N-((5-fluoro-1-methyl-3-oxo-1,2,3,4-tetrahydroisoquinolin-4-yl)methyl)-4-methyl-4′-(morpholinomethyl)-[1,1′-biphenyl]-3-carboxamide], the EC50 is ≤ 5 µM.

By EC50 is commonly meant the concentration needed to bring the measured effect to its halfway point.
